Measured values reported in US10508104B2, “6-hydroxy-5-(phenyl/heteroarylsulfonyl)pyrimidin-4(1H)-one as APJ agonists” (Bristol-Myers Squibb Company, priority 2016, dated 2019).
Read-outs that look alike come from different tables or passages of the source.

Target: human APJ receptor (Homo sapiens (Human), UniProt P35414)
Assay: Intracellular cAMP accumulation assay (APJ hcAMP, HTRF)
Format: cell-based
Details: read-out: Human APJ cAMP EC50 Potency range
Summary of the method: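 HEK293 cells stably expressing human APJ, 5,000 per well, incubated 30 min at rt with compound, […] and 2 μM forskolin. cAMP measured by HTRF against a cAMP standard curve as inhibition of forskolin-driven production. EC50 from variable-slope sigmoidal fit.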

[1] = human APJ, intracellular cAMP accumulation
[2] = HEK293 cells stably expressing human APJ receptor, inhibition of forskolin-mediated cAMP production

Sequence of human APJ receptor (P35414 whole entry): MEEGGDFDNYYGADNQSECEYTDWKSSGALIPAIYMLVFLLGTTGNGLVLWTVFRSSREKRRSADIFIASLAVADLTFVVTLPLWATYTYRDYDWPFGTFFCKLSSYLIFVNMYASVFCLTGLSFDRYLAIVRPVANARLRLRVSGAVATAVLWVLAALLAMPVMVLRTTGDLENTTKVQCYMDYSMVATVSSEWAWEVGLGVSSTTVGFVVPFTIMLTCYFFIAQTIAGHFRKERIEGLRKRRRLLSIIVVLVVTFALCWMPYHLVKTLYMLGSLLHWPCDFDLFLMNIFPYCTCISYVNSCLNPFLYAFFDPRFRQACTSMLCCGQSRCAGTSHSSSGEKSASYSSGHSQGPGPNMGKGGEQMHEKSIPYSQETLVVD

EC50 [1] [nM] | EC50 [2] [nM] | SMILES
0.01 to 10 |  | COC[C@@H](c1ccccc1)n1c(CC2CC2)nc(=O)c(S(=O)(=O)c2ccc(-c3ccncc3C)cc2)c1O [Example 178, 2-(cyclopropylmethyl)-6-hydroxy-1-[(1R)-2-methoxy-1-phenylethyl]-5-[4-(3-methylpyridin-4-yl)benzenesulfonyl]-1,4-dihydropyrimidin-4-one]
0.01 to 10 |  | COC[C@@H](c1ccccc1)n1c(CC2CC2)nc(=O)c(S(=O)(=O)c2ccc(-c3cccnc3C)cc2)c1O [Example 180, 2-(cyclopropylmethyl)-6-hydroxy-1-[(1R)-2-methoxy-1-phenylethyl]-5-[4-(2-methylpyridin-3-yl)benzenesulfonyl]-1,4-dihydropyrimidin-4-one]
0.01 to 10 |  | COC[C@@H](c1ccccc1)n1c(CC2CC2)nc(=O)c(S(=O)(=O)c2ccc(-c3cncc(F)c3)cc2)c1O [Example 181, 2-(cyclopropylmethyl)-5-[4-(5-fluoropyridin-3-yl)benzenesulfonyl]-6-hydroxy-1-[(1R)-2-methoxy-1-phenylethyl]-1,4-dihydropyrimidin-4-one]
0.01 to 10 |  | COC[C@@H](c1ccccc1)n1c(CC2CC2)nc(=O)c(S(=O)(=O)c2ccc(-c3ccc(F)nc3)cc2)c1O [Example 182, 2-(cyclopropylmethyl)-5-[4-(6-fluoropyridin-3-yl)benzenesulfonyl]-6-hydroxy-1-[(1R)-2-methoxy-1-phenylethyl]-1,4-dihydropyrimidin-4-one]
100 to 300 |  | CCCCc1nc(=O)c(S(=O)(=O)c2ccc(Br)cc2)c(O)n1[C@H](C)c1ccc(OC)cc1 [Example 185, 5-(4-bromobenzenesulfonyl)-2-butyl-6-hydroxy-1-[(1R)-1-(4-methoxyphenyl)ethyl]-1,4-dihydropyrimidin-4-one]
100 to 300 |  | CCCCc1nc(O)c(S(=O)(=O)c2ccc(Br)cc2)c(=O)n1C(C)c1cccnc1 (centres unmarked) [Example 187, 5-(4-bromobenzenesulfonyl)-2-butyl-6-hydroxy-3-[1-(pyridin-3-yl)ethyl]-3,4-dihydropyrimidin-4-one]
 | 0.01 to 10 | COC[C@@H](c1ccccc1)n1c(CCC(C)C)nc(=O)c(S(=O)(=O)c2ccc(-c3ccnc(F)c3C)cc2)c1O [Example 189, (R)-5-((4-(2-Fluoro-3-methylpyridin-4-yl)phenyl)sulfonyl)-6-hydroxy-2-isopentyl-1-(2-methoxy-1-phenylethyl)pyrimidin-4(1H)-one]
0.01 to 10 |  | COC[C@@H](c1ccccc1)n1c(CCC(C)C)nc(=O)c(S(=O)(=O)c2ccc(-c3ccncc3C)cc2)c1O [Example 191, 6-hydroxy-1-[(1R)-2-methoxy-1-phenylethyl]-2-(3-methylbutyl)-5-[4-(3-methylpyridin-4-yl)benzenesulfonyl]-1,4-dihydropyrimidin-4-one]
0.01 to 10 |  | CCCCc1nc(=O)c(S(=O)(=O)c2ccc(-c3cncc(F)c3)cc2)c(O)n1[C@@H](CC)c1cccc(Cl)c1 [Example 197, 2-butyl-1-[(1S)-1-(3-chlorophenyl)propyl]-5-[4-(5-fluoropyridin-3-yl)benzenesulfonyl]-6-hydroxy-1,4-dihydropyrimidin-4-one]
0.01 to 10 |  | CCCCc1nc(=O)c(S(=O)(=O)c2ccc(-c3ccc(F)nc3)cc2)c(O)n1[C@@H](CC)c1cccc(Cl)c1 [Example 200, 2-butyl-1-[(1S)-1-(3-chlorophenyl)propyl]-5-[4-(6-fluoropyridin-3-yl)benzenesulfonyl]-6-hydroxy-1,4-dihydropyrimidin-4-one]
0.01 to 10 |  | CCCCc1nc(=O)c(S(=O)(=O)c2ccc(-c3ccc(F)nc3C)cc2)c(O)n1C(c1ccccc1)C1CC1 (centres unmarked) [Example 202, 2-butyl-1-[cyclopropyl(phenyl)methyl]-5-[4-(6-fluoro-2-methylpyridin-3-yl)benzenesulfonyl]-6-hydroxy-1,4-dihydropyrimidin-4-one]
0.01 to 10 |  | CCCCc1nc(=O)c(S(=O)(=O)c2ccc(-c3ccnc(F)c3C)cc2)c(O)n1C(C)c1cccnc1 (centres unmarked) [Example 203, 2-butyl-5-[4-(2-fluoro-3-methylpyridin-4-yl)benzenesulfonyl]-6-hydroxy-1-[1-(pyridin-3-yl)ethyl]-1,4-dihydropyrimidin-4-one]
0.01 to 10 |  | CCCCc1nc(=O)c(S(=O)(=O)c2ccc(-c3ccnc(F)c3C)cc2)c(O)n1C(c1ccccc1)C1CC1 (centres unmarked) [Example 204, 2-butyl-1-[cyclopropyl(phenyl)methyl]-5-[4-(2-fluoro-3-methylpyridin-4-yl)benzenesulfonyl]-6-hydroxy-1,4-dihydropyrimidin-4-one]
0.01 to 10 |  | CCCCc1nc(=O)c(S(=O)(=O)c2ccc(-c3cccnc3C)cc2)c(O)n1C(c1ccccc1)C1CC1 (centres unmarked) [Example 206, 2-butyl-1-[cyclopropyl(phenyl)methyl]-6-hydroxy-5-[4-(2-methylpyridin-3-yl)benzenesulfonyl]-1,4-dihydropyrimidin-4-one]

The next lines start with the compound.

SMILES | EC50 [1] [nM] | EC50 [2] [nM]
COC[C@@H](c1ccccc1)n1c(CC2CC2)nc(=O)c(S(=O)(=O)c2ccc(-c3ccnc(F)c3C)cc2)c1O [Example 179, 2-(cyclopropylmethyl)-5-[4-(2-fluoro-3-methylpyridin-4-yl)benzenesulfonyl]-6-hydroxy-1-[(1R)-2-methoxy-1-phenylethyl]-1,4-dihydropyrimidin-4-one] | 0.01 to 10 | 
COC[C@@H](c1ccccc1)n1c(CC2CC2)nc(=O)c(S(=O)(=O)c2ccc(-c3ccc(F)nc3C)cc2)c1O [Example 183, 2-(cyclopropylmethyl)-5-[4-(6-fluoro-2-methylpyridin-3-yl)benzenesulfonyl]-6-hydroxy-1-[(1R)-2-methoxy-1-phenylethyl]-1,4-dihydropyrimidin-4-one] | 0.01 to 10 | 
COC[C@@H](c1ccccc1)n1c(CCC(C)C)nc(=O)c(S(=O)(=O)c2ccc(Br)cc2)c1O [Example 184, (R)-5-((4-Bromophenyl)sulfonyl)-6-hydroxy-2-isopentyl-3-(2-methoxy-1-phenylethyl)pyrimidin-4(3H)-one] |  | 10 to 100
COC[C@@H](c1ccccc1)n1c(CCC(C)C)nc(=O)c(S(=O)(=O)c2ccc(-c3cccnc3C)cc2)c1O [Example 190, 6-hydroxy-1-[(1R)-2-methoxy-1-phenylethyl]-2-(3-methylbutyl)-5-[4-(2-methylpyridin-3-yl)benzenesulfonyl]-1,4-dihydropyrimidin-4-one] | 0.01 to 10 | 
CCCCc1nc(=O)c(S(=O)(=O)c2ccc(-c3ccncc3C)cc2)c(O)n1[C@@H](CC)c1cccc(Cl)c1 [Example 192, 2-butyl-1-[(1S)-1-(3-chlorophenyl)propyl]-6-hydroxy-5-[4-(3-methylpyridin-4-yl)benzenesulfonyl]-1,4-dihydropyrimidin-4-one] | 0.01 to 10 | 
CCCCc1nc(=O)c(S(=O)(=O)c2ccc(-c3cccnc3C)cc2)c(O)n1[C@@H](CC)c1cccc(Cl)c1 [Example 193, 2-butyl-1-[(1S)-1-(3-chlorophenyl)propyl]-6-hydroxy-5-[4-(2-methylpyridin-3-yl)benzenesulfonyl]-1,4-dihydropyrimidin-4-one] | 0.01 to 10 | 
CCCCc1nc(=O)c(S(=O)(=O)c2ccc(-c3ccnc(F)c3C)cc2)c(O)n1[C@@H](CC)c1cccc(Cl)c1 [Example 194, 2-butyl-1-[(1S)-1-(3-chlorophenyl)propyl]-5-[4-(2-fluoro-3-methylpyridin-4-yl)benzenesulfonyl]-6-hydroxy-1,4-dihydropyrimidin-4-one] | 0.01 to 10 | 
COC[C@@H](c1ccccc1)n1c(CCC(C)C)nc(=O)c(S(=O)(=O)c2ccc(-c3cncc(F)c3)cc2)c1O [Example 195, 5-[4-(5-fluoropyridin-3-yl)benzenesulfonyl]-6-hydroxy-1-[(1R)-2-methoxy-1-phenylethyl]-2-(3-methylbutyl)-1,4-dihydropyrimidin-4-one] | 0.01 to 10 | 
COC[C@@H](c1ccccc1)n1c(CCC(C)C)nc(=O)c(S(=O)(=O)c2ccc(-c3ccc(F)nc3C)cc2)c1O [Example 196, 5-[4-(6-fluoro-2-methylpyridin-3-yl)benzenesulfonyl]-6-hydroxy-1-[(1R)-2-methoxy-1-phenylethyl]-2-(3-methylbutyl)-1,4-dihydropyrimidin-4-one] | 0.01 to 10 | 
CCCCc1nc(=O)c(S(=O)(=O)c2ccc(-c3ccc(F)nc3C)cc2)c(O)n1[C@@H](CC)c1cccc(Cl)c1 [Example 198, 2-butyl-1-[(1S)-1-(3-chlorophenyl)propyl]-5-[4-(6-fluoro-2-methylpyridin-3-yl)benzenesulfonyl]-6-hydroxy-1,4-dihydropyrimidin-4-one] | 0.01 to 10 | 
COC[C@@H](c1ccccc1)n1c(CCC(C)C)nc(=O)c(S(=O)(=O)c2ccc(-c3ccc(F)nc3)cc2)c1O [Example 199, 5-[4-(6-fluoropyridin-3-yl)benzenesulfonyl]-6-hydroxy-1-[(1R)-2-methoxy-1-phenylethyl]-2-(3-methylbutyl)-1,4-dihydropyrimidin-4-one] | 0.01 to 10 | 
CCCCc1nc(=O)c(S(=O)(=O)c2ccc(-c3ccncc3C)cc2)c(O)n1C(c1ccccc1)C1CC1 (centres unmarked) [Example 201] | 0.01 to 10 | 
CCCCc1nc(=O)c(S(=O)(=O)c2ccc(-c3ccncc3C)cc2)c(O)n1C(C)c1cccnc1 (centres unmarked) [Example 205, 2-butyl-6-hydroxy-5-[4-(3-methylpyridin-4-yl)benzenesulfonyl]-1-[1-(pyridin-3-yl)ethyl]-1,4-dihydropyrimidin-4-one] | 0.01 to 10 | 
CC[C@@H](c1ccccc1)n1c(CCC(C)C)nc(=O)c(S(=O)(=O)c2ccc(-c3ccnc(F)c3C)cc2)c1O [Example 207, 5-[4-(2-fluoro-3-methylpyridin-4-yl)benzenesulfonyl]-6-hydroxy-2-(3-methylbutyl)-1-[(1S)-1-phenylpropyl]-1,4-dihydropyrimidin-4-one] | 0.01 to 10 | 
CC[C@@H](c1ccccc1)n1c(CCC(C)C)nc(=O)c(S(=O)(=O)c2ccc(-c3ccc(F)nc3C)cc2)c1O [Example 208, 5-[4-(6-fluoro-2-methylpyridin-3-yl)benzenesulfonyl]-6-hydroxy-2-(3-methylbutyl)-1-[(1S)-1-phenylpropyl]-1,4-dihydropyrimidin-4-one] | 0.01 to 10 | 
